Experiments:
P23H opsin = assay: Rhodopsin purification and regeneration (P23H cells treated with compound, regenerated with 9-cis-retinal, 480-500 nm absorbance); settings: for Fold Increase Over Control (480-500 nm absorbance as fold increase over the DMSO control): P23H cells, 48 hours, regeneration with 9-cis-retinal (20 μM)

SMILES | Fold Increase Over Control (480-500 nm absorbance as fold increase over the DMSO control) (P23H opsin; compound concentration 10 μM) | Fold Increase Over Control (480-500 nm absorbance as fold increase over the DMSO control) (P23H opsin; compound concentration 20 μM) | further results
CC1(C)CCCC2(C)CC(=NO)C=C12 (centres unmarked) [Compound 30, 4,4,7a-trimethyl-5,6,7,7a-tetrahydro-1H-inden-2(4H)-one oxime] | 1.8 fold | – | –
CON=C1C=C2C(C)(C)CCCC2(C)C1 (centres unmarked) [Compound 31, 4,4,7a-trimethyl-5,6,7,7a-tetrahydro-1H-inden-2(4H)-one O-methyl oxime] | 1.6 fold | – | –
CC1(C)CCC(C)(C)C2CC(=O)C=C21 (centres unmarked) [Compound 41, 4,4,7,7-tetramethyl-5,6,7,7a-tetrahydro-1H-inden-2(4H)-one] | 1.9 fold | – | –
CC1(C)CCCC2CC(=O)C=C21 (centres unmarked) [Compound 53, 4,4-dimethyl-5,6,7,7a-tetrahydro-1H-inden-2(4H)-one] | 1.7 fold | – | –
CC1(C)CCCC2CC(=NO)CC21 (centres unmarked) [Compound 55, 4,4-dimethylhexahydro-1H-inden-2(3H)-one oxime] | 2.8 fold | – | –
CC1(C)CCCC2=C1CCC2=O [Compound 56, 4,4-dimethyl-2,3,4,5,6,7-hexahydro-1H-inden-1-one] | 1.7 fold | – | –
CC1(C)CCC(C)(C)[C@H]2CC(=O)C=C21 [Compound 69a, (+)-4,4,7,7-tetramethyl-5,6,7,7a-tetrahydro-1H-inden-2(4H)-one] | – | 2.0 fold | melting point: 35 to 38 °C
CC1(C)CCC(C)(C)[C@H]2CC(=O)C[C@H]21 [Compound 70, (3aR,7aS) and (3aS,7aR)-4,4,7,7-tetramethylhexahydro-1H-inden-2(3H)-one] | – | 1.9 fold | –
CC(=O)/C=C/C1=C(C)CCCC1(C)C [β-ionone, reference compound] | – | 2.4 fold | regeneration of 500 nm absorbing pigment upon treatment with retinal (P23H opsin; FIG. 1, P23H opsin treated with 20 µM during mutant protein production, relative to vehicle (DMSO) alone): increase

From patent US9499464B2, “Opsin-binding ligands, compositions and methods of use” (priority 2011, dated 2016)
